What was measured:
[1] = biological target: T1, β5 subunit of the human constitutive proteasome (CPS) (Homo sapiens, UniProt P28074); test: β5 inhibition assay, human constitutive proteasome (Suc-LLVY-AMC); assay type: biochemical; settings: IC50 class, Suc-LLVY-AMC substrate
T1 construct: purchased Boston Biochem E-360
Description: The enzymatic activity of the β5 subunit of the human constitutive proteasome (CPS) is analyzed. In another assay, which differs from the assay of the human constitutive proteasome only in using the human immunoproteasome (IPS) the enzymatic activity of the β5 subunit of the human immunoproteasome (IPS) is analyzed. […] Inhibition is indicated as IC50 [nM] (“-”=not measured).

[2] = biological target: T2, β5 subunit of the human immunoproteasome (IPS) (Homo sapiens, UniProt P28062); test: β5 inhibition assay, human immunoproteasome (Suc-LLVY-AMC); assay type: biochemical; settings: IC50 class, Suc-LLVY-AMC substrate
T2 construct: purchased Boston Biochem E-370
In short: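 β5 activity is read as liberated AMC fluorescence (355/460 nm) after 4 h dark reaction at RT with 22.6 μM Suc-LLVY-AMC, stopped by 1 μM bortezomib. Beforehand, 1 nM human IPS and compound sat 10 min at RT in HEPES pH 7.5 buffer containing NaCl, 0.02% SDS and DTT.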

[3] = test system: A549 (human lung carcinoma cell line); test: Glo assay of A549 cells (Table 3; ProteasomeGlo plating scheme); assay type: cell-based; settings: Homo sapiens; A549 cells; read-out: PGLo A549
In short: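 Cells plated in 384 wells; compound, DMSO, staurosporine transferred by ECHO; 105 min, 37° C., 5% CO2; Proteasome-Glo (Suc-LLVY-Glo) reagent added; dark 10-15 min; luminescence; IC50 nM.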

[4] = test system: Hs 746T (human gastric carcinoma cell line); test: 48 hr CTG viability assay, Hs 746T; assay type: cell-based; settings: Hs746T, 48 hr CTG, read-out: Hs 746T IC50
In short: (§1)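 Growth inhibition by compound over 48 h; IC50 (nM) derived from duplicate CellTiter-Glo luminescence readings across 0.0015–10 uM.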

[5] = test system: MM1 S (B lymphoblast cell line); test: 48 hr CTG viability assay, MM1S; assay type: cell-based; settings: Homo sapiens, 48 hr CTG, read-out: MM1S IC50
In short: as §1

[6] = test system: RPMI 8226 (B lymphocyte cell line, multiple myeloma); test: 48 hr CTG viability assay, RPMI 8226; assay type: cell-based; settings: Homo sapiens, RPMI-8226; 48 hr CTG; read-out: RPMI-8226 IC50
In short: as §1

Measured: IC50

Cc1ccc2cc1CNC(=O)[C@H](CCc1ccccc1)NC(=O)[C@@H](NC(=O)CCNCCC1CC1)CC(=O)N1CCCC(CCO2)C1 (stereo partly drawn) [Compound 679, 3-((2-cyclopropylethyl)amino)-N-((9S,12S)-5^4-methyl-8,11,14-trioxo-9-phenethyl-4-oxa-7,10-diaza-1(3,1)-piperidina-5(1,3)-benzenacyclotetradecaphane-12-yl)propanamide]
< 100 nM: all assays above

Cc1ccc2cc1CNC(=O)[C@H](CCc1ccccc1)NC(=O)[C@@H](NCC(C)(C)CO)CC(=O)N1CCCC(CCO2)C1 (stereo partly drawn) [Compound 690, (9S,12S)-12-((3-hydroxy-2,2-dimethylpropyl)amino)-5^4-methyl-9-phenethyl-4-oxa-7,10-diaza-1(3,1)-piperidina-5(1,3)-benzenacyclotetradecaphane-8,11,14-trione]
< 100 nM: all assays above

Cc1ccc2cc1CNC(=O)[C@H](CCc1ccccc1)NC(=O)[C@@H](NC(=O)N1CCC(O)CC1)CC(=O)N1CCCC(CCO2)C1 (stereo partly drawn) [Compound 681, 4-hydroxy-N-((9S,12S)-5^4-methyl-8,11,14-trioxo-9-phenethyl-4-oxa-7,10-diaza-1(3,1)-piperidina-5(1,3)-benzenacyclotetradecaphane-12-yl)piperidine-1-carboxamide]
< 100 nM: all assays above

Cc1ccc2cc1CNC(=O)[C@H](CCc1ccccc1)NC(=O)[C@@H](NC(=O)CCNCCC1CCCC1)CC(=O)N1CCCC(CCO2)C1 (stereo partly drawn) [Compound 700, 3-((2-cyclopentylethyl)amino)-N-((9S,12S)-5^4-methyl-8,11,14-trioxo-9-phenethyl-4-oxa-7,10-diaza-1(3,1)-piperidina-5(1,3)-benzenacyclotetradecaphane-12-yl)propanamide]
< 100 nM: all assays above

Cc1ccc2cc1CNC(=O)[C@H](CCc1ccccc1)NC(=O)[C@@H](NC(=O)N1CC(C)(C)c3cc(N)ccc31)CC(=O)N1CCCC(CCO2)C1 (stereo partly drawn) [Compound 666, 5-amino-3,3-dimethyl-N-((9S,12S)-5^4-methyl-8,11,14-trioxo-9-phenethyl-4-oxa-7,10-diaza-1(3,1)-piperidina-5(1,3)-benzenacyclotetradecaphane-12-yl)indoline-1-carboxamide]
< 100 nM: all assays above

Cc1ccc2cc1CNC(=O)C(CCc1ccncc1)NC(=O)[C@@H](NC(=O)Cc1ccc(N)cc1C)CC(=O)N1CCCC(CCO2)C1 (stereo partly drawn) [Compound 678, 2-(4-amino-2-methylphenyl)-N-((12S)-5^4-methyl-8,11,14-trioxo-9-(2-(pyridin-4-yl)ethyl)-4-oxa-7,10-diaza-1(3,1)-piperidina-5(1,3)-benzenacyclotetradecaphane-12-yl)acetamide]
< 100 nM: all assays above

COc1cccc(CCCOCCC(=O)N[C@H]2CC(=O)N3CCCC(CCOc4ccc(C)c(c4)CNC(=O)[C@H](CCc4ccccc4)NC2=O)C3)c1 (stereo partly drawn) [Compound 607, 3-(3-(3-methoxyphenyl)propoxy)-N-((9S,12S)-5^4-methyl-8,11,14-trioxo-9-phenethyl-4-oxa-7,10-diaza-1(3,1)-piperidina-5(1,3)-benzenacyclotetradecaphane-12-yl)propanamide]
< 100 nM: all assays above

CCN1CCC(F)(C(=O)N[C@H]2CC(=O)N3CCCC(CCOc4ccc(C)c(c4)CNC(=O)[C@H](CCc4ccccc4)NC2=O)C3)CC1 (stereo partly drawn) [Compound 592, 1-ethyl-4-fluoro-N-((9S,12S)-5^4-methyl-8,11,14-trioxo-9-phenethyl-4-oxa-7,10-diaza-1(3,1)-piperidina-5(1,3)-benzenacyclotetradecaphane-12-yl)piperidine-4-carboxamide]
< 100 nM: all assays above

Cc1ccc2cc1CNC(=O)[C@H](CCc1ccccc1)NC(=O)[C@@H](NC(=O)CCNC(=O)C1CC3(CCC3)C1)CC(=O)N1CCCC(CCO2)C1 (stereo partly drawn) [Compound 616, N-(3-(((9S,12S)-5^4-methyl-8,11,14-trioxo-9-phenethyl-4-oxa-7,10-diaza-1(3,1)-piperidina-5(1,3)-benzenacyclotetradecaphane-12-yl)amino)-3-oxopropyl)spiro[3.3]heptane-2-carboxamide]
< 100 nM: all assays above

Cc1ccc2cc1CNC(=O)[C@H](CCc1ccccc1)NC(=O)[C@@H](NC(=O)CCNCc1cccc(N3CCOCC3)c1)CC(=O)N1CCCC(CCO2)C1 (stereo partly drawn) [Compound 665, N-((9S,12S)-5^4-methyl-8,11,14-trioxo-9-phenethyl-4-oxa-7,10-diaza-1(3,1)-piperidina-5(1,3)-benzenacyclotetradecaphane-12-yl)-3-((3-morpholinobenzyl)amino)propanamide]
< 100 nM: all assays above

Cc1ccc2cc1CNC(=O)[C@H](CCc1ccccc1)NC(=O)[C@@H](NC(=O)Cc1ccc3ncccc3c1)CC(=O)N1CCCC(CCO2)C1 (stereo partly drawn) [Compound 586, N-((9S,12S)-5^4-methyl-8,11,14-trioxo-9-phenethyl-4-oxa-7,10-diaza-1(3,1)-piperidina-5(1,3)-benzenacyclotetradecaphane-12-yl)-2-(quinolin-6-yl)acetamide]
< 100 nM: all assays above

Cc1ccc2cc1CNC(=O)[C@H](CCc1ccccc1)NC(=O)[C@@H](NC(=O)CCN1CCCC1)CC(=O)N1CCCC(CCO2)C1 (stereo partly drawn) [Compound 668, N-((9S,12S)-5^4-methyl-8,11,14-trioxo-9-phenethyl-4-oxa-7,10-diaza-1(3,1)-piperidina-5(1,3)-benzenacyclotetradecaphane-12-yl)-3-(pyrrolidin-1-yl)propanamide]
< 100 nM: all assays above

Cc1ccc2cc1CNC(=O)[C@H](CCc1ccccc1)NC(=O)[C@@H](NC(=O)CCOCCC1CCC1)CC(=O)N1CCCC(CCO2)C1 (stereo partly drawn) [Compound 627, 3-(2-cyclobutylethoxy)-N-((9S,12S)-5^4-methyl-8,11,14-trioxo-9-phenethyl-4-oxa-7,10-diaza-1(3,1)-piperidina-5(1,3)-benzenacyclotetradecaphane-12-yl)propanamide]
< 100 nM: all assays above

Cc1ccc2cc1CNC(=O)[C@H](CCc1ccccc1)NC(=O)[C@@H](NC(=O)N1CC(C)(O)C1)CC(=O)N1CCCC(CCO2)C1 (stereo partly drawn) [Compound 669, 3-hydroxy-3-methyl-N-((9S,12S)-5^4-methyl-8,11,14-trioxo-9-phenethyl-4-oxa-7,10-diaza-1(3,1)-piperidina-5(1,3)-benzenacyclotetradecaphane-12-yl)azetidine-1-carboxamide]
< 100 nM: all assays above

Cc1ccc2cc1CNC(=O)[C@H](CCc1ccccc1)NC(=O)[C@@H](NC(=O)CCN1CCC3(CC1)COC3)CC(=O)N1CCCC(CCO2)C1 (stereo partly drawn) [Compound 641, N-((9S,12S)-5^4-methyl-8,11,14-trioxo-9-phenethyl-4-oxa-7,10-diaza-1(3,1)-piperidina-5(1,3)-benzenacyclotetradecaphane-12-yl)-3-(2-oxa-7-azaspiro[3.5]nonan-7-yl)propanamide]
< 100 nM: all assays above

Reference: patent US20240415819A1, “MACROCYCLIC COMPOUNDS AS PROTEASOME SUBUNIT BETA TYPE-5 INHIBITORS” (Lead Discovery Center GmbH, priority 2021, published 2024)
